According to patent US4740504A, “Antihyperlipidemic amine boranes” (United States Borax & Chemical Corp., priority 1987, dated 1988):
Like-named read-outs stand apart in the source and are kept apart here.

Assays:
male CF1 mice = test: Hypolipidemic activity in CF1 mice, intraperitoneal dosing (serum cholesterol and triglyceride); format: in vivo; conditions: Mus musculus, ip, male CF1 mice; for response vs control in vivo at 20 mg/kg / response vs control in vivo at 5 mg/kg: Table I; for response vs control in vivo at 20 mg/kg: 20 mg./kg./day i.p.; for response vs control in vivo at 8 mg/kg: Table II, 8 mg./kg./day i.p.; for response vs control in vivo at 5 mg/kg: 5 mg./kg./day i.p.
Protocol: For determining hypolipidemic activity, the compounds were suspended in an aqueous 1% carboxymethylcellulose solution and tested at 5 or 20 mg./kg./day administered intraperitoneally to male CF1 mice (~25 g.). On days 9 and 16 blood was collected by tail vein bleeding and the serum separated by centrifugation for three minutes. Serum cholesterol levels were determined by a modified Liebermann-Burchard reaction. Serum triglyceride levels were also determined at 16 days using a Fisher-Hycel Triglyceride Test Kit.
The test was repeated at a dosage of 8 mg./kg./day.
N-n-Octadecyl-N,N-dimethylamine borane was suspended in an aqueous 1% carboxymethylcellulose solution, homogenized, and administered to CF1 male mice (~25 g.) intraperitoneally for 16 days or Sprague Dawley male rats (~350 g.) orally by an intubation needle for 14 days. On days 9 and 14 or 16, blood was obtained by tail vein bleeding and the serum separated by centrifugation for 3 minutes. The serum cholesterol levels were determined by a modification of the Liebermann-Burchard reaction. Serum was also collected on day 14 or 16 and the triglyceride content was determined by a Fisher-Hycel Triglyceride Test Kit.

[1] = dose of 5-20 mg/kg/day; Hall et al., J. Pharm. Sci. 70, 339-341 (1981); cited from earlier work
[2] = biological target: T1, ATP dependent citrate lyase (Mus musculus, UniProt Q91V92); conditions: in vivo; Hall et al. 1984; cited from earlier work
T1 construct: from tissue
T1 sequence (Q91V92 1-1091): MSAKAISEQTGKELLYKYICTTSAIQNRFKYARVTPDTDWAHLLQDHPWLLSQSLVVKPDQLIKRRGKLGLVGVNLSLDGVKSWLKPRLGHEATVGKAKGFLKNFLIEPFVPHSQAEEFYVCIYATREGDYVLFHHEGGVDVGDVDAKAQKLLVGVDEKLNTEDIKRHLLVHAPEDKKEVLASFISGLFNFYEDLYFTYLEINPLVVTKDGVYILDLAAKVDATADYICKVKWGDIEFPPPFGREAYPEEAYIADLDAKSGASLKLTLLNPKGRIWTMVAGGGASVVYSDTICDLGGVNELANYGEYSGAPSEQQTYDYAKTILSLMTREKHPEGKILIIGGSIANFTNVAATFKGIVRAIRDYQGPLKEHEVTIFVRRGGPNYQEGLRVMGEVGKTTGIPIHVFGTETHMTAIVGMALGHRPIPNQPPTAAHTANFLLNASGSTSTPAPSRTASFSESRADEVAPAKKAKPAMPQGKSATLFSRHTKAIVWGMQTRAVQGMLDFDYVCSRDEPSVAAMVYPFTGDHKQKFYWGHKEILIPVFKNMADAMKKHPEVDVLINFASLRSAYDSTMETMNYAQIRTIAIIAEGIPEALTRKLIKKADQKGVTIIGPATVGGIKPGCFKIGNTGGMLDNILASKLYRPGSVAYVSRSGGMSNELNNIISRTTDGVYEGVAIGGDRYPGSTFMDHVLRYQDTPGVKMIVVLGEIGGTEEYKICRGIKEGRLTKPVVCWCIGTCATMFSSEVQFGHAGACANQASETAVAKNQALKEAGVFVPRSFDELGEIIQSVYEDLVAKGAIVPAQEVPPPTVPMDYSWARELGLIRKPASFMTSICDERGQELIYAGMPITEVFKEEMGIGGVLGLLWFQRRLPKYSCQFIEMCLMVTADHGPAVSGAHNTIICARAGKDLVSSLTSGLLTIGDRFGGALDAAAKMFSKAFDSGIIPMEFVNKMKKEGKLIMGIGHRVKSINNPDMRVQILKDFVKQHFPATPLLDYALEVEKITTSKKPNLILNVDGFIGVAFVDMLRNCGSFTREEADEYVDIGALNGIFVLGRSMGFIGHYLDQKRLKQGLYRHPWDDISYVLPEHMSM

mice = conditions: cited from earlier work
acetyl CoA synthetase = biological target: T2, acetyl CoA synthetase (Mus musculus, UniProt Q9QXG4); conditions: in vivo; Hall et al. 1984; cited from earlier work
T2 construct: from tissue
T2 sequence (Q9QXG4 whole entry): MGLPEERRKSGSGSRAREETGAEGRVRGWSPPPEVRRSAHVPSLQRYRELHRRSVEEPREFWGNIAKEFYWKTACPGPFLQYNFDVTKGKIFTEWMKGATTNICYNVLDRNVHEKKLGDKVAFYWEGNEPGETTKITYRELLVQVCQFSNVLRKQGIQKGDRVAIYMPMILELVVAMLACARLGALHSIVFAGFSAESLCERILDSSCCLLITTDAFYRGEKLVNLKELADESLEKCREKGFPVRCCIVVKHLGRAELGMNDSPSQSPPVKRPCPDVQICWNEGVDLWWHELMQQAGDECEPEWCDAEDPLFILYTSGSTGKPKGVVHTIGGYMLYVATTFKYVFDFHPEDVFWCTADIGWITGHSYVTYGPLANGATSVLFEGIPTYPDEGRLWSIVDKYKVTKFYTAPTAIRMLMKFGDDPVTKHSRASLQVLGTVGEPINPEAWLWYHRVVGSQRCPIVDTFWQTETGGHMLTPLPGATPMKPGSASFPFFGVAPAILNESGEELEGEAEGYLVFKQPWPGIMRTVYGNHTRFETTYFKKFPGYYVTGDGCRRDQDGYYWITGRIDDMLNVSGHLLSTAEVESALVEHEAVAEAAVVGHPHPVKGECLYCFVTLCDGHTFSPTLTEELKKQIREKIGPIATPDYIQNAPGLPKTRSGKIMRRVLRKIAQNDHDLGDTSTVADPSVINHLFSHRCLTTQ

[3] = test system: phosphatidate phosphohydrolase; conditions: in vivo; Hall et al. 1984; cited from earlier work
[4] = 216 h, day 9, read-out: Serum Cholesterol Day 9
[5] = 384 h, day 16, read-out: Serum Cholesterol Day 16
[6] = 384 h, day 16, read-out: Serum Triglyceride Day 16

Molecule	response vs control in vivo at 20 mg/kg (male CF1 mice; [4]) [%]	response vs control in vivo at 8 mg/kg (male CF1 mice; [4]) [%]	response vs control in vivo at 20 mg/kg (male CF1 mice; [5]) [%]	response vs control in vivo at 20 mg/kg (male CF1 mice; [6]) [%]	response vs control in vivo at 8 mg/kg (male CF1 mice; [5]) [%]	response vs control in vivo at 8 mg/kg (male CF1 mice; [6]) [%]	response vs control in vivo at 5 mg/kg (male CF1 mice; [4]) [%]	response vs control in vivo at 5 mg/kg (male CF1 mice; [5]) [%]	response vs control in vivo at 5 mg/kg (male CF1 mice; [6]) [%]	hypolipidemic activity (printed: hyperlipidemic) [1]	effect on ATP dependent citrate lyase [2]	hypolipidemic activity (mice; 2.5 mg/kg in mice, Hall et al., J. Pharm. Sci. 73, 973-977 (1984))	cholesterol excretion from the body (mice; Hall et al. 1984)	effect on acetyl CoA synthetase (acetyl CoA synthetase)	effect on phosphatidate phosphohydrolase [3]
[BH3-][N+](C)(C)CCCCCCCC [II, N-octyl-N,N-dimethylamine borane]	66	81	69	75	73	74	–	–	–	–	–	–	–	–	–
[BH3-][N+](C)(C)CCCCCCCCCCC [IV, N--undecyl-N,N--dimethylamine borane]	–	82	–	–	68	75	68	63	82	–	–	–	–	–	–
[BH3-][N+](C)(C)CCCCCCCCCCCC [IX, N--dodecyl-N,N--dimethylamine borane]	103	75	97	90	74	94	–	–	–	–	–	–	–	–	–
[BH3-][N+](C)(C)CCCCCCCCCCCCC [V, N--tridecyl-N,N--dimethylamine borane]	88	86	65	57	84	76	–	–	–	–	–	–	–	–	–
[BH3-][N+](C)(C)CCCCCCCCCCCCCCC [VI, N--pentadecyl-N,N--dimethylamine borane]	86	81	64	70	66	77	–	–	–	–	–	–	–	–	–
[BH3-][N+](C)(C)CCCCCCCCCCCCCC [VII, N--tetradecyl-N,N--dimethylamine borane]	79	80	60	102	67	80	–	–	–	–	–	–	–	–	–
[BH3-][N+](C)(C)CCCCCCCCCCCCCCCC [VIII, N--hexadecyl-N,N--dimethylamine borane]	74	79	62	72	59	41	–	–	–	–	–	–	–	–	–
[BH3-][N+](C)(C)CCCCCC [X, N-- -n-hexyl-N,N--dimethylamine borane]	66	73	48	71	69	80	–	–	–	–	–	–	–	–	–
[BH3-][N+](C)(C)CCCC [XI, N-- -n-butyl-N,N--dimethylamine borane]	72	88	62	68	64	72	–	–	–	–	–	–	–	–	–
[BH3-][N+](C)(C)CCCCCCCCCC [XII, N--decyl-N,N--dimethylamine borane]	51	77	46	76	77	79	–	–	–	–	–	–	–	–	–
[BH3-][N+](C)(C)Cc1ccccc1 [XIII, N--benzyl-N,N--dimethylamine borane]	95	73	71	60	65	53	–	–	–	–	–	–	–	–	–
C[N+](C)(C)[BH2-]C(=O)O [trimethylamine carboxyborane]	–	–	–	–	–	–	–	–	–	potent hyperlipidemic activity	–	–	–	–	–
tetrakis-μ-(trimethylamine-borane carboxyato)-bis(trimethylamine-carboxyborane)-dicopper (II)	–	–	–	–	–	–	–	–	–	–	lower	potent hypolipidemic agent	accelerate cholesterol excretion	lower	lower
